Results: the Deep4Chem optical property database

Experiment: solvent given as SMILES

CCN(CC)c1ccc2cc(/C=C/C(O)=C/C(C)=O)c(=O)oc2c1
absorption maximum (in CC#N): 456 nm
absorption maximum (in CC(C)=O): 456 nm
absorption maximum (in CCOC(C)=O): 447 nm
absorption maximum (in CO): 458 nm
absorption maximum (in CS(C)=O): 470 nm
absorption maximum (in Cc1ccccc1): 447 nm
absorption maximum (in ClC(Cl)Cl): 455 nm
absorption maximum (in ClCCl): 456 nm

CC1=[N+]2C(=C(c3c4ccccc4c(C)c4ccccc34)c3ccc(C)n3[B-]2(F)F)C=C1
absorption maximum (in CC#N): 514 nm
absorption maximum (in CCCCCC): 515 nm
absorption maximum (in CCO): 515 nm
absorption maximum (in CN(C)C=O): 517 nm
absorption maximum (in Cc1ccccc1): 519 nm
absorption maximum (in ClCCl): 517 nm

CCN1c2ccc(/C=N/Nc3ccccn3)cc2Sc2cc(-c3ccc(OC)cc3)ccc21
absorption maximum (in C1CCOC1): 381 nm
absorption maximum (in CS(C)=O): 386 nm
absorption maximum (in Cc1ccccc1): 380 nm
absorption maximum (in ClCCl): 383 nm

CCCCCOc1cc2oc(=O)c3c4ccc(N(c5ccc(C)cc5)c5ccc(C)cc5)cc4c4ccc5cccc6c(c1)c2c3c4c56
absorption maximum (in C1CCOC1): 487 nm

COC(=O)C1=C(C(=O)OC)C2=C[C@H]3c4ccccc4[C@]2([Se]1)c1ccccc13
absorption maximum (in ClCCl): 370 nm

C(#Cc1nccnc1C#Cc1ccccc1)c1ccccc1
absorption maximum (in CC#N): 315 nm

Cc1cc(C)c(B(c2cc(-c3c(C)cc(C)cc3C)sc2-c2sc(-c3c(C)cc(C)cc3C)cc2P(=O)(c2ccccc2)c2ccccc2)c2c(C)cc(C)cc2C)c(C)c1
absorption maximum (in CO): 370 nm

O=[N+]([O-])c1ccc([N+]2=Cc3ccc4c5c(ccc4c3O[B-]2(c2c(F)c(F)c(F)c(F)c2F)c2c(F)c(F)c(F)c(F)c2F)C=[N+](c2ccc([N+](=O)[O-])cc2)[B-](c2c(F)c(F)c(F)c(F)c2F)(c2c(F)c(F)c(F)c(F)c2F)O5)cc1
absorption maximum (in C1CCOC1): 525 nm
absorption maximum (in CC#N): 513 nm
absorption maximum (in CC(C)=O): 515 nm
absorption maximum (in Cc1ccccc1): 549 nm
absorption maximum (in ClCCl): 553 nm

N#C/C(=C\c1ccncc1)c1nc(-c2ccccc2)cs1
absorption maximum (in CC#N): 361 nm
absorption maximum (in CCO): 370 nm
absorption maximum (in CN(C)C=O): 368 nm
absorption maximum (in CS(C)=O): 371 nm
absorption maximum (in Cc1ccccc1): 372 nm
absorption maximum (in ClCCl): 418 nm

COC(=O)C(NC(=O)OC(C)(C)C)c1ccc2oc(-c3ccc(OC(=O)c4ccccc4)cc3OC(=O)c3ccccc3)nc2c1 (stereo unspecified)
absorption maximum (in CC1CCCCC1): 323 nm
absorption maximum (in CC#N): 306 nm
absorption maximum (in CO): 306 nm

CCn1c2ccccc2c2cc(/C=C/c3cc(/C=C/c4ccc5c(c4)c4ccccc4n5CC)ncn3)ccc21
absorption maximum (in C1CCOC1): 397 nm
absorption maximum (in CCOC(C)=O): 395 nm
absorption maximum (in CN(C)C=O): 405 nm
absorption maximum (in Cc1ccccc1): 397 nm
absorption maximum (in ClCCl): 405 nm

C[Si](C)(C)c1ccc2ccc3c([Si](C)(C)C)ccc4ccc1c2c43
absorption maximum (in CCCCCC): 350 nm
absorption maximum (in CO): 349 nm
absorption maximum (in ClCCl): 352 nm

C(=C\c1nc2ccccc2[nH]1)/c1ccc(-c2nc3c4cccnc4c4ncccc4c3[nH]2)cc1
absorption maximum (in C1CCOC1): 381 nm
absorption maximum (in CC#N): 376 nm
absorption maximum (in CO): 375 nm
absorption maximum (in ClCCl): 382 nm

CC1(C)Nc2cc3nc4cc(Cl)c(Cl)cc4nc3cc2N1
absorption maximum (in CCO): 471 nm

CCn1c2ccccc2c2cc(-c3cc(-c4ccc5c(c4)c4ccccc4n5CC)nc(N4CCCCC4)n3)ccc21
absorption maximum (in C1CCOC1): 367 nm
absorption maximum (in CCOC(C)=O): 368 nm
absorption maximum (in CN(C)C=O): 370 nm
absorption maximum (in Cc1ccccc1): 369 nm
absorption maximum (in ClCCl): 371 nm

CC1=C(C2=C(C)C(C)=[N+]3C2=Cc2cc(C)c(C)n2[B-]3(F)F)C2=Cc3cc(C)c(C)n3[B-](F)(F)[N+]2=C1C
absorption maximum (in ClCCl): 557 nm

COc1ccc(/C=C/c2cc(/C=C/c3ccc(N(c4ccccc4)c4ccccc4)cc3)nc(/C=C/c3ccc(N(C)C)cc3)n2)cc1
absorption maximum (in ClCCl): 386 nm

COc1cccc2cc(-c3ccc([N+](=O)[O-])cc3)c(=N)oc12
absorption maximum (in C1CCOC1): 339 nm
absorption maximum (in CC#N): 332 nm
absorption maximum (in CS(C)=O): 335 nm
absorption maximum (in ClC(Cl)Cl): 332 nm

CC[n+]1c(-c2ccccc2)c2cc(NC(=O)N[C@H]3C[C@@H]([NH3+])[C@H](O)[C@@H](O)[C@@H]3O)ccc2c2ccc(NC(=O)N[C@@H]3C[C@H]([NH3+])[C@@H](O)[C@@H](O)[C@H]3O)cc21
absorption maximum (in O): 438 nm

N#Cc1ccc(C#Cc2ccccc2C#N)cc1
absorption maximum (in ClC(Cl)Cl): 297 nm

COc1ccc2c(c1)O[B-]13Oc4cc(OC)ccc4-c4cc(-c5ccccc5)c(n41)N=C1C(c4ccccc4)=CC2=[N+]13 (stereo unspecified)
absorption maximum (in ClC(Cl)Cl): 765 nm

COc1c2ccccc2c(OC)c2c1c1ccc(C(F)(F)F)cc1n2C
absorption maximum (in C1CCCCC1): 416 nm
absorption maximum (in CC#N): 417 nm
absorption maximum (in CO): 416 nm
absorption maximum (in ClCCl): 419 nm

CC1=[N+]2C(=C(c3ccc(Br)cc3)c3ccc(C)n3[B-]2(F)F)C=C1c1cc2n(c1)[B-](F)(F)[N+]1=CC=CC1=C2c1c(C)cc(C)cc1C
absorption maximum (in C1CCCCC1): 598.5 nm
absorption maximum (in CCOC(C)=O): 601.5 nm

CC1(C)CC(/C=C/c2ccc(-n3cccn3)cc2)=CC(=C(C#N)C#N)C1
absorption maximum (in C1CCOC1): 405 nm
absorption maximum (in CC#N): 397 nm
absorption maximum (in CCO): 404 nm
absorption maximum (in CCOC(C)=O): 403 nm
absorption maximum (in ClCCl): 404 nm
absorption maximum (in c1ccccc1): 407 nm

C#CCn1c2ccccc2c2cc(/C=C/c3cc(C)c4n3[B-](F)(F)[N+]3=C(C)C=C(C)C3=C4c3ccc(I)cc3)ccc21
absorption maximum (in CC#N): 579 nm
absorption maximum (in CS(C)=O): 589 nm
absorption maximum (in ClC(Cl)Cl): 588 nm

Cc1cc(C(F)(F)F)nc2c1ccc1nc(-c3ccc(Cl)cc3)cn12
absorption maximum (in CC#N): 362.6 nm
absorption maximum (in CCCCCC): 376.5 nm
absorption maximum (in CCCCOC(C)=O): 368.6 nm
absorption maximum (in CCOC(C)=O): 368.2 nm
absorption maximum (in CO): 359.6 nm
absorption maximum (in Cc1ccccc1): 375.2 nm
absorption maximum (in ClC(Cl)Cl): 369.2 nm
absorption maximum (in ClCCl): 366.6 nm
absorption maximum (in c1ccccc1): 375 nm

COc1ccc(OC)c(C2=C3C=CC(=[N+](C)C)C=C3[Si](C)(C)c3cc(N(C)C)ccc32)c1
absorption maximum (in O): 651 nm

COc1ccc2c(=O)c3c([nH]c2c1)-c1ccccc1NC3(C)C
absorption maximum (in C1CCOC1): 404 nm
absorption maximum (in CC#N): 415 nm
absorption maximum (in CCCCO): 424 nm
absorption maximum (in CCCO): 421 nm
absorption maximum (in CCO): 424 nm
absorption maximum (in CCOC(C)=O): 395 nm
absorption maximum (in CN(C)C=O): 421 nm
absorption maximum (in CO): 424 nm
absorption maximum (in CS(C)=O): 424 nm
absorption maximum (in Cc1ccccc1): 397 nm
absorption maximum (in ClC(Cl)(Cl)Cl): 404 nm
absorption maximum (in ClCCl): 403 nm
absorption maximum (in O): 383 nm
absorption maximum (in c1ccccc1): 402 nm

CC1=N/C(=C\c2ccccc2N(C)C)C(=O)N1C
absorption maximum (in C1CCCCC1): 395 nm
absorption maximum (in C1CCOC1): 395 nm
absorption maximum (in CC#N): 396 nm
absorption maximum (in CO): 398 nm
absorption maximum (in CS(C)=O): 398 nm
absorption maximum (in ClCCl): 396 nm
absorption maximum (in O): 346 nm

CCCCCCCCCCCCCCCCCCN1C(=O)c2ccc3c4ccc5c6c(ccc(c7ccc(c2c37)C1=O)c64)C(=O)N(CCCCCCCCCCCCCCCCCC)C5=O
absorption maximum (in CN(C)C=O): 525 nm

CC(=O)Nc1ccc(O)cc1
absorption maximum (in C1CCOC1): 293 nm
absorption maximum (in CC#N): 290 nm
absorption maximum (in CCCCO): 290 nm
absorption maximum (in CO): 290 nm
absorption maximum (in CS(C)=O): 293 nm

Cc1cc(C)cc(C)c1
absorption maximum (in C1CCCCC1): 261.57 nm
